These results are taken from US20110086886A2, “INSECTICIDAL ISOXAZOLINES” (Bayer CropScience AG, priority 2006, published 2011).

In one experiment the test system is Spodoptera litura larvae. Briefly: Test for Spodoptera litura larvae (leaf dip). The format is in vivo. The following applies: effective component concentration of 500 ppm, 3rd-instar larvae on dipped sweet potato leaves, after 7 days; for pest or weed control at 500 ppm: foliar, 168 h, read-out: insecticidal ratio. The procedure:
(§1) In order to obtain a preparation of a proper active compound, 1 part by weight of an active compound was mixed with the stated amounts of solvent and emulsifier and the mixture was diluted to a specified concentration with water.
The leaves of sweat potatoes were dipped in the test solution diluted to a specified concentration with water. After these leaves were dried in air to remove the chemical solution, they were placed in a Petri dish of 9 cm in diameter, in which 10 Spodoptera litura larvae of the 3rd-instar were set free. The Petri dish was placed in a thermostatic chamber kept at 25° C. and the leaves of sweat potatoes were added after 2 days and 4 days, to examine the number of dead larvae after 7 days, thereby calculating the insecticidal ratio of the chemical solution.
In this test, an average of the results in two Petri dishes in one section was calculated.

The next experiment relates to Aulacophora femoralis. Description: Test for Aulacophora femoralis (spray test). The settings on record: effective component concentration of 500 ppm; 2nd-instar, dipped cucumber leaves; after 7 days. The format is in vivo. The procedure:
as §1
The leaves of cucumbers were dipped in the aqueous solution diluted to a specified concentration with water. After the chemical solution was dried in air, these leaves were placed in a plastic cup, in which sterilized black soil was placed. 5 Aulacophora femoralis of the 2nd-instar were set free in the soil, to examine the number of dead insects after 7 days, thereby calculating the insecticidal ratio of the chemical solution.

As to `FC(F)(F)C1(c2cc(Cl)cc(Cl)c2)CC(c2ccc(-n3cncn3)cc2Cl)=NO1` (racemic) [Compound 96], the insecticidal ratio in the experiment with Spodoptera litura larvae is 100%. For the compound `O=[N+]([O-])c1cc(C2=NOC(c3cc(C(F)(F)F)cc(C(F)(F)F)c3)(C(F)(F)F)C2)ccc1-n1cncn1` (racemic) [Compound 136], the insecticidal ratio with Spodoptera litura larvae and in the experiment on Aulacophora femoralis was 100% throughout. As for `FC(F)(F)C1(c2cc(Cl)cc(Cl)c2)CC(c2ccc(-n3cncn3)c(Cl)c2)=NO1` (racemic) [Compound 94], the insecticidal ratio in the experiment on Spodoptera litura larvae and in the experiment with Aulacophora femoralis was 100% throughout. `FC(F)(F)c1ccc(C2(C(F)(F)F)CC(c3ccc(-n4cncn4)cc3)=NO2)cc1` (racemic) [Compound 123]: in the experiment on Spodoptera litura larvae, the insecticidal ratio was 100%. With `O=[N+]([O-])c1cc(C2=NOC(c3cc(Cl)cc(Cl)c3)(C(F)(F)F)C2)ccc1-n1cc(F)cn1` (centres unmarked) [Compound 25], the insecticidal ratio with Spodoptera litura larvae and in the experiment with Aulacophora femoralis was 100% in each case.

On to `O=[N+]([O-])c1cc(C2=NOC(c3cccc(C(F)(F)F)c3)(C(F)(F)F)C2)ccc1-n1cnnn1` (centres unmarked) [Compound 161], for which the insecticidal ratio with Spodoptera litura larvae and in the experiment with Aulacophora femoralis was 100% throughout. Take `O=[N+]([O-])c1cc(C2=NOC(c3cccc(C(F)(F)F)c3)(C(F)(F)F)C2)ccc1-n1cncn1` (racemic) [Compound 127]: the insecticidal ratio with Spodoptera litura larvae and with Aulacophora femoralis was 100% throughout.

Regarding `O=[N+]([O-])c1cc(C2=NOC(c3cc(Cl)cc(Cl)c3)(C(F)(F)F)C2)ccc1-n1cc(Cl)cn1` (centres unmarked) [Compound 26], the insecticidal ratio in the experiment on Spodoptera litura larvae was 100%. On to `O=[N+]([O-])c1cc(C2=NOC(c3cccc(Cl)c3)(C(F)(F)F)C2)ccc1-n1cnnn1` (racemic) [Compound 147], for which, in the experiment on Aulacophora femoralis, the insecticidal ratio was determined as 100%. On to `O=[N+]([O-])c1cc(C2=NOC(c3cc(Cl)cc(Cl)c3)(C(F)(F)F)C2)ccc1-n1cc(C(F)(F)F)cn1` (centres unmarked) [Compound 29], for which the insecticidal ratio with Spodoptera litura larvae is reported as 100%.

On to `FC(F)(F)C1(c2cc(Cl)cc(Cl)c2)CC(c2ccc(-n3ccnc3)cc2)=NO1` (centres unmarked) [Compound 48], for which the insecticidal ratio in the experiment on Spodoptera litura larvae was 100%. Still for that read-out and setting: the result for `O=[N+]([O-])c1cc(C2=NOC(c3cccc(C(F)(F)F)c3)(C(F)(F)F)C2)ccc1-n1ncnn1` (centres unmarked) [Compound 176] reads 100%. On to `N#Cc1cc(C2=NOC(c3cc(Cl)cc(Cl)c3)(C(F)(F)F)C2)ccc1-n1cccn1` (centres unmarked) [Compound 13, 5-[5-(3,5-dichlorophenyl)-5-(trifluoromethyl)-4,5-dihydroisoxazol-3-yl]-2-(1H-pyrazol-1-yl)benzonitrile], for which the pest or weed control at 500 ppm in the experiment with Spodoptera litura larvae was 100%. For the compound `FC(F)(F)C1(c2cc(Cl)cc(Cl)c2)CC(c2ccc(-n3cncn3)c(I)c2)=NO1` (racemic) [Compound 98], the insecticidal ratio in the experiment on Spodoptera litura larvae and in the experiment on Aulacophora femoralis was 100% throughout. As for `FC(F)(F)c1cccc(C2(C(F)(F)F)CC(c3ccc(-n4cnnn4)cc3)=NO2)c1` (centres unmarked) [Compound 157], the insecticidal ratio with Spodoptera litura larvae and in the experiment with Aulacophora femoralis was 100% each time.

For the compound `Nc1cc(C2=NOC(c3cc(Cl)cc(Cl)c3)(C(F)(F)F)C2)ccc1-n1cncn1` (centres unmarked) [Compound 105, 5-[5-(3,5-dichlorophenyl)-5-(trifluoromethyl)-4,5-dihydroisoxazol-3-yl]-2-(1H-1,2,4-triazol-1-yl)aniline], in the experiment on Spodoptera litura larvae, the pest or weed control at 500 ppm came out at 100%. For the compound `FC(F)(F)C1(c2cc(Cl)cc(Cl)c2)CC(c2ccc(-n3cc(Cl)cn3)cc2)=NO1` (centres unmarked) [Compound 4], in the experiment with Spodoptera litura larvae, the insecticidal ratio turned out to be 100%. Consider `CC(=O)Nc1cc(C2=NOC(c3cc(Cl)cc(Cl)c3)(C(F)(F)F)C2)ccc1-n1cncn1` (centres unmarked) [Compound 106, N-{5-[5-(3,5-dichlorophenyl)-5-(trifluoromethyl)-4,5-dihydroisoxazol-3-yl]-2-(1H-1,2,4-triazol-1-yl)phenyl}acetamide], for which the pest or weed control at 500 ppm in the experiment with Spodoptera litura larvae came to 100%. Further, the insecticidal ratio in the experiment on Aulacophora femoralis turned out to be 100%. Turning to `N#Cc1cc(C2=NOC(c3cc(Cl)cc(Cl)c3)(C(F)(F)F)C2)ccc1-n1ncnn1` (centres unmarked) [Compound 171], the insecticidal ratio with Spodoptera litura larvae and in the experiment on Aulacophora femoralis was 100% throughout. Consider `FC(F)(F)C1(c2cc(Cl)cc(Cl)c2)CC(c2ccc(-n3cccn3)c(Cl)c2)=NO1` (centres unmarked) [Compound 8], for which the insecticidal ratio in the experiment on Spodoptera litura larvae is 100%.

With `FC(F)(F)C1(c2cc(Cl)cc(Cl)c2)CC(c2ccc(-n3cncn3)c(Br)c2)=NO1` (racemic) [Compound 97], the insecticidal ratio in the experiment on Spodoptera litura larvae and in the experiment on Aulacophora femoralis was 100% each time. For `N#Cc1cc(C2=NOC(c3ccccc3)(C(F)(F)F)C2)ccc1-n1cncn1` (centres unmarked) [Compound 80], the insecticidal ratio in the experiment on Aulacophora femoralis stood at 100%. `FC(F)(F)c1cc(C(F)(F)F)cc(C2(C(F)(F)F)CC(c3ccc(-n4cnnn4)cc3)=NO2)c1` (centres unmarked) [Compound 162]: the insecticidal ratio in the experiment on Spodoptera litura larvae was found to be 100%.

For the compound `O=[N+]([O-])c1cnn(-c2ccc(C3=NOC(c4cc(Cl)cc(Cl)c4)(C(F)(F)F)C3)cc2Br)c1` (centres unmarked) [Compound 12], the insecticidal ratio with Spodoptera litura larvae is 100%.

As for `FC(F)(F)c1cc(C2=NOC(c3cc(Cl)cc(Cl)c3)(C(F)(F)F)C2)ccc1-n1cncn1` (racemic) [Compound 100], the insecticidal ratio in the experiment on Spodoptera litura larvae and with Aulacophora femoralis was 100% throughout.

As for `N#Cc1cc(C2=NOC(c3cc(Cl)cc(Cl)c3)(C(F)(F)F)C2)ccc1-n1cc(Br)cn1` (centres unmarked) [Compound 18], in the experiment with Spodoptera litura larvae, the insecticidal ratio came to 100%.

`Cc1cc(C2=NOC(c3cc(Cl)cc(Cl)c3)(C(F)(F)F)C2)ccc1-n1cncn1` (racemic) [Compound 99]: the insecticidal ratio in the experiment on Spodoptera litura larvae and in the experiment on Aulacophora femoralis was 100% throughout. In the case of `FC(F)(F)C1(c2cccc(Cl)c2)CC(c2ccc(-n3cncn3)cc2)=NO1` (centres unmarked) [Compound 86], the insecticidal ratio in the experiment on Spodoptera litura larvae and in the experiment with Aulacophora femoralis was 100% throughout. Regarding `N#Cc1cc(C2=NOC(c3cccc(Cl)c3)(C(F)(F)F)C2)ccc1-n1cncn1` (centres unmarked) [Compound 89], the insecticidal ratio in the experiment with Spodoptera litura larvae and in the experiment on Aulacophora femoralis was 100% each time. For `FC(F)(F)c1cc(C(F)(F)F)cc(C2(C(F)(F)F)CC(c3ccc(-n4cncn4)c(Cl)c3)=NO2)c1` (racemic) [Compound 133], in the experiment with Spodoptera litura larvae, the insecticidal ratio is reported as 100%. Still for that read-out and setting: the result for “1-(4-{5-[3,5-bis(trifluoromethyl)phenyl]-5-(trifluoromethyl-4,5-dihydroisoxazol-3-yl}-2-nitrophenyl)-2H-tetrazole [Compound 178]” reads 100%. Take `O=[N+]([O-])c1cc(C2=NOC(c3cc(Cl)cc(Cl)c3)(C(F)(F)F)C2)ccc1-n1ccnn1` (centres unmarked) [Compound 64]: in the experiment on Aulacophora femoralis, the insecticidal ratio is on record as 100%. Consider `O=[N+]([O-])c1cc(C2=NOC(c3cc(Cl)cc(Cl)c3)(C(F)(F)F)C2)ccc1-n1cc(Br)cn1` (centres unmarked) [Compound 27], for which the insecticidal ratio with Spodoptera litura larvae stood at 100%. The same measure, in the same setting: next, `N#Cc1cc(C2=NOC(c3cc(Cl)cc(Cl)c3)(C(F)(F)F)C2)ccc1-n1cc(F)cn1` (centres unmarked) [Compound 16]: 100%; `O=[N+]([O-])c1cc(C2=NOC(c3cc(Cl)cc(Cl)c3)(C(F)(F)F)C2)ccc1-n1cccn1` (centres unmarked) [Compound 23]: 100%; `FC(F)(F)C1(c2cc(Cl)cc(Cl)c2)CC(c2ccc(-n3cnnn3)c(I)c2)=NO1` (centres unmarked) [Compound 152]: 100%. Still for that read-out and setting: next, `N#Cc1cc(C2=NOC(c3cc(C(F)(F)F)cc(C(F)(F)F)c3)(C(F)(F)F)C2)ccc1-n1cc([N+](=O)[O-])cn1` (centres unmarked) [Compound 47]: 100%. On the same count and under the same terms, next, `N#Cc1cnn(-c2ccc(C3=NOC(c4cc(Cl)cc(Cl)c4)(C(F)(F)F)C3)cc2)c1` (centres unmarked) [Compound 7]: 100%. Regarding `O=[N+]([O-])c1cc(C2=NOC(c3cc(Cl)cc(Cl)c3)(C(F)(F)F)C2)ccc1-n1cc(I)cn1` (centres unmarked) [Compound 28], in the experiment with Spodoptera litura larvae, the insecticidal ratio was 100%. On the same count and under the same terms, the result for `O=[N+]([O-])c1cc(C2=NOC(c3cc(Cl)cc(Cl)c3)(C(F)(F)F)C2)ccc1-n1ccnc1` (centres unmarked) [Compound 52] reads 100%. For the compound `Cc1cnn(-c2ccc(C3=NOC(c4cc(Cl)cc(Cl)c4)(C(F)(F)F)C3)cc2[N+](=O)[O-])c1` (centres unmarked) [Compound 24], the insecticidal ratio in the experiment with Spodoptera litura larvae is recorded as 100%. In the case of `FC(F)(F)C1(c2cc(Cl)cc(Cl)c2)CC(c2ccc(-n3cnnc3)cc2)=NO1` (centres unmarked) [Compound 141, 4-{4-[5-(3,5-dichlorophenyl)-5-(trifluoromethyl)-4,5-dihydroisoxazol-3-yl]phenyl}-4H-1,3,4-triazole], the pest or weed control at 500 ppm with Spodoptera litura larvae is 100%.

On to `Fc1cc(C2=NOC(c3cc(Cl)cc(Cl)c3)(C(F)(F)F)C2)ccc1-n1cncn1` (racemic) [Compound 93], for which, in the experiment with Spodoptera litura larvae, the insecticidal ratio came out at 100%. On the same count and under the same terms, the result for `FC(F)(F)C1(c2cc(Cl)cc(Cl)c2)CC(c2ccc(-n3cc(Br)cn3)cc2)=NO1` (centres unmarked) [Compound 5] reads 100%; that for `N#Cc1cc(C2=NOC(c3cc(Cl)cc(Cl)c3)(C(F)(F)F)C2)ccc1-n1cc(I)cn1` (centres unmarked) [Compound 19], 100%. Same read-out and setting: the result for `O=[N+]([O-])c1cc(C2=NOC(c3cc(Cl)cc(Cl)c3)(C(F)(F)F)C2)ccc1-n1nccn1` (centres unmarked) [Compound 72] reads 100%. Turning to `O=[N+]([O-])c1cc(C2=NOC(c3cc(F)cc(F)c3)(C(F)(F)F)C2)ccc1-n1cncn1` (centres unmarked) [Compound 85], in the experiment on Aulacophora femoralis, the insecticidal ratio was 100%. On to `FC(F)(F)C1(c2cc(Cl)cc(Cl)c2)CC(c2ccc(-n3cccn3)cc2)=NO1` (centres unmarked) [Compound 2], for which the insecticidal ratio in the experiment with Spodoptera litura larvae was 100%.
